Test results as given in patent US20050187184A1, “Antineoplastic combinations” (Wyeth, priority 2001, published 2005).
Structures can show the parent of a compound that is named as a salt.

How the values were obtained:
[1] = system: histologically diverse tumor cells; settings: cited from earlier work
orthotopic glioma = settings: nude mice; cited from earlier work
human pancreatic tumors = settings: several human pancreatic tumors in nude mice; cited from earlier work
[2] = system: human glioblastoma cell line; settings: in vitro; cited from earlier work
breast cancer lines = settings: one of two breast cancer lines studied in vivo; cited from earlier work
[3] = system: human tumor xenografts of diverse histological types; settings: nude mice; cited from earlier work
human colon line GC3 = experiment: human colon (GC3) mouse xenograft test procedure; type: in vivo; settings: gemcitabine on days 1, 4 and 8 in the first cycle
Experimental: Female CBA/CaJ mice (Jackson Laboratories, Bar Harbor, Me.), 4 weeks of age, were immune-deprived by thymectomy, followed 3 weeks later by whole-body irradiation (1200 cGy) using a ^137Cs source. Mice received 3×10^6 nucleated bone marrow cells within 6-8 h of irradiation. Tumor pieces of approximately 3 mm^3 were implanted in the space of the dorsal lateral flanks of the mice to initiate tumor growth. Tumor-bearing mice were randomized into groups of seven prior to initiating therapy. Mice bearing tumors each received drug when tumors were approximately 0.20-1 cm in diameter. Tumor size was determined at 7-day intervals using digital Vernier calipers interfaced with a computer. Tumor volumes were calculated assuming tumors to be spherical using the formula [(□/6)×d^3], where d is the mean diameter. CCI-779 was given on a schedule of 5 consecutive days for 2 weeks with this cycle repeated every 21 days for 3 cycles. […] The schedule of the other chemotherapy drug for each study was as follows: • Gemcitabine on days 1, 4, 8 in cycle 1 only The combination of CCI-779 and gemcitabine was evaluated in a human colon (GC3) mouse xenograft test procedure. In this test procedure, CCI-779 was given daily ×5 for 2 consecutive weeks every 21 days for 3 cycles and gemcitabine given on days 1, 4, and 8 in the first cycle only.

Compound	growth of tumor cells in vitro ([1]; CNS cancer, leukemia (T-cell), breast cancer, prostate cancer and melanoma lines among the most sensitive)	cell cycle effect ([1]; in vitro)	activity in orthotopic glioma model (orthotopic glioma)	tumor growth (human pancreatic tumors)	growth factor (platelet-derived)-induced stimulation [2]	tumor growth (breast cancer lines)	activity against human tumor xenografts [3]	sensitivity of gliomas [3]	tumor response in the first cycle (human colon line GC3)
CO[C@H]1C[C@@H]2CC[C@@H](C)[C@@](O)(O2)C(=O)C(=O)N2CCCC[C@H]2C(=O)O[C@H]([C@H](C)C[C@@H]2CC[C@@H](OC(=O)C(C)(CO)CO)[C@H](OC)C2)CC(=O)[C@H](C)/C=C(\C)[C@@H](O)[C@@H](OC)C(=O)[C@H](C)C[C@H](C)/C=C/C=C/C=C/1C [CCI-779, Rapamycin 42-ester with 3-hydroxy-2-(hydroxymethyl)-2-methylpropionic acid]	inhibit the growth	arrested cells in the G1 phase	active	inhibited	markedly suppressed	inhibited	has activity	particularly sensitive	
Nc1ccn([C@@H]2O[C@H](CO)[C@@H](O)C2(F)F)c(=O)n1 [gemcitabine, 2′-deoxy-2′,2′-difluorocytidine monohydrochloride ((beta)-isomer)]									tumor regression
